How the values were obtained:
total micro-organism = test: Total microbial (plate) count of spent brewer's / wet distiller's grains stored at ambient temperature; type: cell-based
Procedure, shortened: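 Spent brewer's grains taken from a brewery discharge line were mixed at the laboratory and treated with powdered commercial calcium oxide containing approximately 94% CaO. Each batch was kept under insect-proof screens at ambient temperature, with no further treatment or agitation. Samples were drawn every seven days, and the entire sample was sent to a microbiological testing facility for total microbial counts.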

yeast = test: Yeast count of spent brewer's / wet distiller's grains stored at ambient temperature; type: cell-based
[1] = pH of suspensions of grain samples in distilled water or PBS; conditions: for pH: 1% (w/w) in distilled water
Experimental: The untreated sample (A) was compared visually against the corresponding quicklime-treated sample (B).
On Day 7, 10 g amounts of each sample were suspended in either 90 ml PBS or 90 ml sterile distilled water and shaken for 10 minutes. The pH of each suspension was then measured and compared.
On Day 9, 10 g of each sample was suspended in 90 ml PBS and shaken for 10 minutes. The pH was measured.

[2] = calcium oxide 0.5% (w/w), Example 14
[3] = dose 5% w/w, distiller's grains not de-watered, Examples 16-18
[4] = wet distiller's grains, 0.5% CaO (w/w), day 1
[5] = wet distiller's grains, 0.5% CaO (w/w), day 3
[6] = wet distiller's grains, 0.5% CaO (w/w), day 6
[7] = wet distiller's grains, 0.5% CaO (w/w), day 8
[8] = wet distiller's grains, 1.0% CaO (w/w), day 2
[9] = wet distiller's grains, 1.0% CaO (w/w), day 3
[10] = wet distiller's grains, 1.0% CaO (w/w), day 6
[11] = wet distiller's grains, 1.0% CaO (w/w), day 8
[12] = wet distiller's grains, 1.0% CaO (w/w), day 10
[13] = wet distiller's grains, 1.5% CaO (w/w), day 1
[14] = wet distiller's grains, 1.5% CaO (w/w), day 2
[15] = wet distiller's grains, 1.5% CaO (w/w), day 3
[16] = wet distiller's grains, 1.5% CaO (w/w), day 6
[17] = wet distiller's grains, 1.5% CaO (w/w), day 8
[18] = wet distiller's grains, 2.0% CaO (w/w), day 1
[19] = wet distiller's grains, 2.0% CaO (w/w), day 3
[20] = wet distiller's grains, 2.0% CaO (w/w), day 6
[21] = wet distiller's grains, 2.0% CaO (w/w), day 8
[22] = wet distiller's grains, 2.0% CaO (w/w), day 10
[23] = wet distiller's grains, 2.5% CaO (w/w), day 1
[24] = wet distiller's grains, 2.5% CaO (w/w), day 2
[25] = wet distiller's grains, 2.5% CaO (w/w), day 3
[26] = wet distiller's grains, 2.5% CaO (w/w), day 6
[27] = wet distiller's grains, 2.5% CaO (w/w), day 7
[28] = wet distiller's grains, 2.5% CaO (w/w), day 8
[29] = wet distiller's grains, 2.5% CaO (w/w), day 10
[30] = wet distiller's grains, 2.5% CaO (w/w), day 21
[31] = wet distiller's grains, 2.5% CaO (w/w), day 56
[32] = wet distiller's grains, 5.0% CaO (w/w), day 7
[33] = wet distiller's grains, 5.0% CaO (w/w), day 14
[34] = wet distiller's grains, 5.0% CaO (w/w), day 42
[35] = wet distiller's grains, 5.0% CaO (w/w), day 49
[36] = wet distiller's grains, 5.0% CaO (w/w), day 56
[37] = wet distiller's grains, 10.0% CaO (w/w), day 7
[38] = wet distiller's grains, 10.0% CaO (w/w), day 21
[39] = wet distiller's grains, 10.0% CaO (w/w), day 42
[40] = wet distiller's grains, 10.0% CaO (w/w), day 49
[41] = wet distiller's grains, 10.0% CaO (w/w), day 56

## [O]=[Ca] [calcium oxide]
Total micro-organism; 2.5% (w/w) calcium oxide powder added to the fermentation residue
  shelf life of fermentation residue: at least 10 days
Total micro-organism; 5% CaO (w/w) powder, week 1
  Total plate count: 2770 cfu/gram
Total micro-organism; 5% CaO (w/w) powder, week 2
  Total plate count: 200 cfu/gram
Total micro-organism; 5% CaO (w/w) powder, week 3
  Total plate count: 4800 cfu/gram
Total micro-organism; 5% CaO (w/w) powder, week 4
  Total plate count: 10 cfu/gram
Total micro-organism; 5% CaO (w/w) powder, week 5
  Total plate count: 10 cfu/gram
Total micro-organism; 10% (w/w) calcium oxide added to the fermentation residue
  shelf life of fermentation residue: at least 63 days
Total micro-organism; [2]
  effect on micro-organism levels: only a very limited effect
Total micro-organism; calcium oxide 1.0% (w/w), Example 14
  suppressed microbial levels up to day: 8 days
Total micro-organism; calcium oxide 2.5% (w/w), Example 9
  preservation effect period: only the first week
Total micro-organism; calcium oxide 5.0% (w/w), Example 9
  preservation effect period: 49 days
Total micro-organism; calcium oxide 10% (w/w), Example 9
  preservation effect period: 56 days
Total micro-organism; calcium oxide 10% (w/w), Example 18
  preservation period: 9 week
Total micro-organism; calcium oxide 10% (w/w), spent brewer's grains, initial count 3,300,000
  total microbial count after treatment: zero
Total micro-organism; calcium oxide levels of 2.0% and 2.5% (w/w), Example 14
  preservation effect period: 10 days
Total micro-organism; calcium oxide powder 5% and 10% (w/w), end of the 9 week period
  microbial counts: <10 to 20 cfu/gram
Total micro-organism; [3]
  preservation time with total microbial counts <10 cfu/g: ≧9 weeks
  preservation time with total microbial counts <100 cfu/g: ≧9 weeks
  preservation time with total microbial counts <1000 cfu/g: ≧9 weeks
Total micro-organism; dose 10% w/w, distiller's grains not de-watered, Examples 16-18
  preservation time with total microbial counts <10 cfu/g: ≧9 weeks
Total micro-organism; [4]
  Total plate count: 1.01E+06 cfu/gram
Total micro-organism; wet distiller's grains, 0.5% CaO (w/w), day 2
  Total plate count: 680000 cfu/gram
Total micro-organism; [5]
  Total plate count: 35000 cfu/gram
Total micro-organism; [6]
  Total plate count: 5.60E+07 cfu/gram
Total micro-organism; [7]
  Total plate count: 3.30E+06 cfu/gram
Total micro-organism; wet distiller's grains, 1.0% CaO (w/w), day 1
  Total plate count: 3.50E+06 cfu/gram
Total micro-organism; [8]
  Total plate count: 3600 cfu/gram
Total micro-organism; [9]
  Total plate count: 720 cfu/gram
Total micro-organism; [10]
  Total plate count: 120 cfu/gram
Total micro-organism; [11]
  Total plate count: 320 cfu/gram
Total micro-organism; [12]
  Total plate count: 4.70E+07 cfu/gram
Total micro-organism; [13]
  Total plate count: 26200 cfu/gram
Total micro-organism; [14]
  Total plate count: 110 cfu/gram
Total micro-organism; [15]
  Total plate count: 40 cfu/gram
Total micro-organism; [16]
  Total plate count: 90 cfu/gram
Total micro-organism; [17]
  Total plate count: 730 cfu/gram
Total micro-organism; wet distiller's grains, 1.5% CaO (w/w), day 10
  Total plate count: 70 cfu/gram
Total micro-organism; [18]
  Total plate count: 1090 cfu/gram
Total micro-organism; wet distiller's grains, 2.0% CaO (w/w), day 2
  Total plate count: 130 cfu/gram
Total micro-organism; [19]
  Total plate count: 130 cfu/gram
Total micro-organism; [20]
  Total plate count: 340 cfu/gram
Total micro-organism; [21]
  Total plate count: 180 cfu/gram
Total micro-organism; [22]
  Total plate count: 60 cfu/gram
Total micro-organism; [23]
  Total plate count: 5300 cfu/gram
Total micro-organism; [24]
  Total plate count: 60 cfu/gram
Total micro-organism; [25]
  Total plate count: 240 cfu/gram
Total micro-organism; [26]
  Total plate count: 90 cfu/gram
Total micro-organism; [27]
  Total plate count: 10 cfu/gram
Total micro-organism; [28]
  Total plate count: 150 cfu/gram
Total micro-organism; [29]
  Total plate count: 50 cfu/gram
Total micro-organism; wet distiller's grains, 2.5% CaO (w/w), day 14
  Total plate count: 74,000 cfu/gram
Total micro-organism; [30]
  Total plate count: 1,010,000 cfu/gram
Total micro-organism; [31]
  Total plate count: 6,800,000 cfu/gram
Total micro-organism; [32]
  Total plate count: 660 cfu/gram
Total micro-organism; [33]
  Total plate count: 82,000 cfu/gram
Total micro-organism; wet distiller's grains, 5.0% CaO (w/w), day 21
  Total plate count: 180 cfu/gram
Total micro-organism; [34]
  Total plate count: 20 cfu/gram
Total micro-organism; [35]
  Total plate count: 50 cfu/gram
Total micro-organism; [36]
  Total plate count: 3,400 cfu/gram
Total micro-organism; [37]
  Total plate count: 740 cfu/gram
Total micro-organism; wet distiller's grains, 10.0% CaO (w/w), day 14
  Total plate count: 150 cfu/gram
Total micro-organism; [38]
  Total plate count: 100 cfu/gram
Total micro-organism; [39]
  Total plate count: 130 cfu/gram
Total micro-organism; [40]
  Total plate count: 80 cfu/gram
Total micro-organism; [41]
  Total plate count: 460 cfu/gram
yeast; 5% CaO (w/w) powder, week 1
  Yeast Count: 10 cfu/gram
yeast; 5% CaO (w/w) powder, week 2
  Yeast Count: 10 cfu/gram
yeast; 5% CaO (w/w) powder, week 3
  Yeast Count: 113 cfu/gram
yeast; 5% CaO (w/w) powder, week 5
  Yeast Count: 10 cfu/gram
yeast; [4]
  Yeast Count: <10 cfu/gram
yeast; [5]
  Yeast Count: <10 cfu/gram
yeast; [6]
  Yeast Count: 40000 cfu/gram
yeast; [7]
  Yeast Count: <10 cfu/gram
yeast; [8]
  Yeast Count: <10 cfu/gram
yeast; [9]
  Yeast Count: <10 cfu/gram
yeast; [10]
  Yeast Count: <10 cfu/gram
yeast; [11]
  Yeast Count: <10 cfu/gram
yeast; [12]
  Yeast Count: 20 cfu/gram
yeast; [13]
  Yeast Count: <10 cfu/gram
yeast; [14]
  Yeast Count: <10 cfu/gram
yeast; [15]
  Yeast Count: <10 cfu/gram
yeast; [16]
  Yeast Count: <10 cfu/gram
yeast; [17]
  Yeast Count: <10 cfu/gram
yeast; [18]
  Yeast Count: <10 cfu/gram
yeast; [19]
  Yeast Count: <10 cfu/gram
yeast; [20]
  Yeast Count: <10 cfu/gram
yeast; [21]
  Yeast Count: <10 cfu/gram
yeast; [22]
  Yeast Count: <10 cfu/gram
yeast; [23]
  Yeast Count: <10 cfu/gram
yeast; [24]
  Yeast Count: <10 cfu/gram
yeast; [25]
  Yeast Count: <10 cfu/gram
yeast; [26]
  Yeast Count: <10 cfu/gram
yeast; [27]
  Yeast Count: 10 cfu/gram
yeast; [28]
  Yeast Count: <10 cfu/gram
yeast; [29]
  Yeast Count: <10 cfu/gram
yeast; [30]
  Yeast Count: 53,000 cfu/gram
yeast; [31]
  Yeast Count: 115,000 cfu/gram
yeast; [32]
  Yeast Count: 10 cfu/gram
yeast; [33]
  Yeast Count: 10 cfu/gram
yeast; [34]
  Yeast Count: 10 cfu/gram
yeast; [35]
  Yeast Count: 20 cfu/gram
yeast; [36]
  Yeast Count: 20 cfu/gram
yeast; [37]
  Yeast Count: 10 cfu/gram
yeast; [38]
  Yeast Count: 10 cfu/gram
yeast; [39]
  Yeast Count: 10 cfu/gram
yeast; [40]
  Yeast Count: 10 cfu/gram
yeast; [41]
  Yeast Count: 10 cfu/gram
[1]; 0.5% CaO (w/w), day 1
  pH: 7.97
[1]; 0.5% CaO (w/w), day 2
  pH: 8.06
[1]; 0.5% CaO (w/w), day 3
  pH: 7.63
[1]; 0.5% CaO (w/w), day 6
  pH: 7.38
[1]; 0.5% CaO (w/w), day 8
  pH: 7.80
[1]; 1.0% CaO (w/w), day 1
  pH: 8.86
[1]; 1.0% CaO (w/w), day 2
  pH: 8.82
[1]; 1.0% CaO (w/w), day 3
  pH: 9.19
[1]; 1.0% CaO (w/w), day 6
  pH: 9.21
[1]; 1.0% CaO (w/w), day 8
  pH: 7.89
[1]; 1.0% CaO (w/w), day 10
  pH: 8.27
[1]; 1.5% CaO (w/w), day 1
  pH: 9.10
[1]; 1.5% CaO (w/w), day 2
  pH: 9.15
[1]; 1.5% CaO (w/w), day 3
  pH: 9.95
[1]; 1.5% CaO (w/w), day 6
  pH: 9.84
[1]; 1.5% CaO (w/w), day 8
  pH: 9.10
[1]; 1.5% CaO (w/w), day 10
  pH: 10.84
[1]; 2.0% CaO (w/w), day 1
  pH: 10.68
[1]; 2.0% CaO (w/w), day 2
  pH: 10.10
[1]; 2.0% CaO (w/w), day 3
  pH: 9.48
[1]; 2.0% CaO (w/w), day 6
  pH: 11.22
[1]; 2.0% CaO (w/w), day 8
  pH: 9.76
[1]; 2.0% CaO (w/w), day 10
  pH: 9.97
[1]; 2.5% CaO (w/w), day 1
  pH: 11.48
[1]; 2.5% CaO (w/w), day 2
  pH: 11.08
[1]; 2.5% CaO (w/w), day 3
  pH: 11.41
[1]; 2.5% CaO (w/w), day 6
  pH: 11.55
[1]; 2.5% CaO (w/w), day 8
  pH: 10.29
[1]; 2.5% CaO (w/w), day 10
  pH: 8.87
[1]; 5% CaO (w/w) powder, week 1
  pH: 11.36
[1]; 5% CaO (w/w) powder, week 2
  pH: 11.00
[1]; 5% CaO (w/w) powder, week 3
  pH: 12.20
[1]; 5% CaO (w/w) powder, week 4
  pH: 11.61
[1]; 5% CaO (w/w) powder, week 5
  pH: 11.34
[1]; [2]
  pH of treated wet distiller's grains: below 8

Source: patent US20120009280A1, “METHOD OF REDUCING THE RATE OF DEGRADATION OF A BIOLOGICAL MATERIAL” (Bio-Energy Ingredients Limited, priority 2009, published 2012)
